Experimental findings from patent US20140288043A1, “PYRAZOLOPYRIDINE COMPOUNDS” (Genentech, Inc., priority 2013, published 2014) are described below.

Sequence of LRRK2 (Q5S007 whole entry G2019S, form open, the tested form may be a part): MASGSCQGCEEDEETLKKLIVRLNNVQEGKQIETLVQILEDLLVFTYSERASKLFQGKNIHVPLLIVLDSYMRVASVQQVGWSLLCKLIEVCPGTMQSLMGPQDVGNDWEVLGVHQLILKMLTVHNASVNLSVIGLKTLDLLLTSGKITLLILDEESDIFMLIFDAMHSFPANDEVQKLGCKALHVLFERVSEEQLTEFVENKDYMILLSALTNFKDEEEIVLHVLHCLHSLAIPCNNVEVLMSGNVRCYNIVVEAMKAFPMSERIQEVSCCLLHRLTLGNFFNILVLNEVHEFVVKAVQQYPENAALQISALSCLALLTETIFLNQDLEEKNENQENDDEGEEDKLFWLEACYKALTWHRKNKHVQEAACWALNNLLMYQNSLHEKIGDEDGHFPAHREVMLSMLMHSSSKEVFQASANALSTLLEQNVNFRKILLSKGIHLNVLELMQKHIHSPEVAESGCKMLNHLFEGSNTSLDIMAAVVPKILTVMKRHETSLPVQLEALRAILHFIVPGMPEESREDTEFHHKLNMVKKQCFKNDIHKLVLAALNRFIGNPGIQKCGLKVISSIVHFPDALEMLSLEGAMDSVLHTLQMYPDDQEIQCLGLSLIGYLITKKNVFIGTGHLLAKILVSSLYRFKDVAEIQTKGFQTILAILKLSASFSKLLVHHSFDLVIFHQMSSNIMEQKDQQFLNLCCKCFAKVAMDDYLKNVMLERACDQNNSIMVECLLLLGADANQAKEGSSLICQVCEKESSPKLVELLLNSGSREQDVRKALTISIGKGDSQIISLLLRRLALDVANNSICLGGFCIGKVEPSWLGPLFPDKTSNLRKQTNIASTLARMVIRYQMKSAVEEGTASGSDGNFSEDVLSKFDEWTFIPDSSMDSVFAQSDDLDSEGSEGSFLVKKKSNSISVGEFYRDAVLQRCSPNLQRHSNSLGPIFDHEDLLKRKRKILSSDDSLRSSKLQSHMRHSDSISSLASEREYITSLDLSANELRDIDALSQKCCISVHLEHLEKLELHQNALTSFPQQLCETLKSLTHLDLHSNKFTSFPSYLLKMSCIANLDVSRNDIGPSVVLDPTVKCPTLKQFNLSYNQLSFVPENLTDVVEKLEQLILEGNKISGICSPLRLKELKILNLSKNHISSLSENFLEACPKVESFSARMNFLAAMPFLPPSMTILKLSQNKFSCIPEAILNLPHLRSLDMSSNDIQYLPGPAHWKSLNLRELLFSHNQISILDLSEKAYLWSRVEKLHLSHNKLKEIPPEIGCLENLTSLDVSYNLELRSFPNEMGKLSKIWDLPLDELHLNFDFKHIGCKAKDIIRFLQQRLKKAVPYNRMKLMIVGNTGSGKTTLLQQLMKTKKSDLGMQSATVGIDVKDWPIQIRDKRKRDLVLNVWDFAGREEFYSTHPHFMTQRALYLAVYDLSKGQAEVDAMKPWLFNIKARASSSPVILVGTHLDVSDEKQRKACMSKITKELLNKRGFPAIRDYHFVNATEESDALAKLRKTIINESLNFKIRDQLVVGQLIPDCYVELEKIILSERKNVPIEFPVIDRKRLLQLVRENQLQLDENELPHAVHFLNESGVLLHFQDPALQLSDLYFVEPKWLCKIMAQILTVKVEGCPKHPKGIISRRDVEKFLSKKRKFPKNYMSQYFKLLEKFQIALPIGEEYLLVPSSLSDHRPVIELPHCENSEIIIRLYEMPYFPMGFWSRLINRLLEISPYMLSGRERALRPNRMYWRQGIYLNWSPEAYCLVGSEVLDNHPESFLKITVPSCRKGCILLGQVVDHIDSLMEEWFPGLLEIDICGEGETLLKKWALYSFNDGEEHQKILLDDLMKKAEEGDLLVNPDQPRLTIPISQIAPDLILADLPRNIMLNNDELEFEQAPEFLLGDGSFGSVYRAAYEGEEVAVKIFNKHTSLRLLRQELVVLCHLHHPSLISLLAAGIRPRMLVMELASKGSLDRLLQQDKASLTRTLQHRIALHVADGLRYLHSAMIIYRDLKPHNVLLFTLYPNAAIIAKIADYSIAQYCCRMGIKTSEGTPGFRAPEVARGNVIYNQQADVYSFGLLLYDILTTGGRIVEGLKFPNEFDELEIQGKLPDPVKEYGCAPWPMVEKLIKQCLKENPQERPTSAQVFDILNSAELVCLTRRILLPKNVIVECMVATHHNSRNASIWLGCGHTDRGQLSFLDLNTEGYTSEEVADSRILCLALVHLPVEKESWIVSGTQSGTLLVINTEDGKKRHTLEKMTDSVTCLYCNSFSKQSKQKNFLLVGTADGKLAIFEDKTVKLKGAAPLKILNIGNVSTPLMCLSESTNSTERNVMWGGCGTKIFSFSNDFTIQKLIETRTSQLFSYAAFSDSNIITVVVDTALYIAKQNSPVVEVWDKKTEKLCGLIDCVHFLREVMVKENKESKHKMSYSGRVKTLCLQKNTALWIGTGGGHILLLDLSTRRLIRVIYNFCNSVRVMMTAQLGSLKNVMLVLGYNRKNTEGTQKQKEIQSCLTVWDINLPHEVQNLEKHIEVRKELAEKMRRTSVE

The test addresses LRRK2 (Homo sapiens, UniProt Q5S007). In words: LRRK2 protein kinase assay ([γ-33P] ATP, peptide substrate), KI values of Table 1. Particulars: LRRK2 affinity values. In kind it is biochemical. From the text: All LRRK2 protein kinases were of human origin and were sourced from Invitrogen Corporation (Carlsbad, Calif. 92008 USA) unless otherwise indicated. The active mutant used was recombinant human, catalytic domain (amino acids 970-2527) containing a G2019S mutation, GST-tagged, expressed in insect cells (Invitrogen Cat#PV4881). The wild type used was recombinant human, catalytic domain (amino acids 970-2527) GST-tagged, expressed in insect cells (Invitrogen Cat#PV4873). The kinase dead mutant used was recombinant human, catalytic domain (amino acids 970-2527) containing a D1994A mutation, GST-tagged, expressed in insect cells (Invitrogen Cat#PM4041AE). No special measures were taken to activate any of the kinases.
All assays were carried out at room temperature (˜21° C.) and were linear with respect to time and enzyme concentration under the conditions used. Assays were performed for 180 min in a 96 well format. LRRK2 was present at a concentration of approximately 5 nM. The enzyme was diluted and assayed in 50 mM Tris-HCl pH7.5, 0.1 mM EGTA, 1 mM DTT and 10 mM MgCl2. The concentration of magnesium chloride in the assay was 10 mM. The [γ-33P] ATP (0.4 μCi/well) was used at 134 uM for G2019S mutant and at 57 μM for the wild type kinase in order to be at Km. The peptide substrate in the assay was […] at 100 μM.
The assays were initiated with Mg/ATP and stopped by the addition of 25 μl/well 50% orthophosphoric acid. Reactions were harvested onto Whatman P81 Unifilter Plates (Fisher Scientific. Loughborough, LE115RG, UK. Cat# FDU-105-020U) using a Tomtec harvester. (Tomtec Hamden, Conn. 06514. USA) Plates were counted using a Perkin Elmer Top Count NX7. (Perkin Elmer, Shelton Conn. 06484-4794 USA)
IC50 values of inhibitors were determined after carrying out assays at 10 different concentrations of each compound in duplicate.
By Ki is commonly meant a dissociation constant, usually derived from enzyme kinetics or from competition with a known ligand. High values mean weaker binding, low ones tighter binding. As for `CC(C)Nc1nccc2[nH]nc(-c3cc(C4CCN(C)CC4)ccn3)c12` [Compound 40, N-isopropyl-3-(4-(1-methylpiperidin-4-yl)pyridin-2-yl)-1H-pyrazolo[4,3-c]pyridin-4-amine], the Ki turned out to be 8.4 nM.
`CCOc1cc(-c2n[nH]c3cc(C)nc(NC4CCOCC4)c23)ncn1` [Compound 58, 3-(6-ethoxypyrimidin-4-yl)-6-methyl-N-(tetrahydro-2H-pyran-4-yl)-1H-pyrazolo[4,3-c]pyridin-4-amine] yielded an inhibition constant Ki of 39.1 nM.
The figure for `Cc1cc(C(=O)N(C)C)cc(-c2n[nH]c3ccnc(NC4CCOCC4)c23)n1` [Compound 64, N,N,2-trimethyl-6-(4-((tetrahydro-2H-pyran-4-yl)amino)-1H-pyrazolo[4,3-c]pyridin-3-yl)isonicotinamide] is 16.6 nM.
The figure for `FC(F)(F)c1cc(-c2n[nH]c3ccnc(NC4CCOCC4)c23)ncn1` [Compound 22, N-(tetrahydro-2H-pyran-4-yl)-3-(6-(trifluoromethyl)pyrimidin-4-yl)-1H-pyrazolo[4,3-c]pyridin-4-amine] is 2.9 nM.
The result for `CC(C)Nc1nccc2[nH]nc(-c3ccncn3)c12` [Compound 15, N-isopropyl-3-(pyrimidin-4-yl)-1H-pyrazolo[4,3-c]pyridin-4-amine] reads 20.9 nM; that for `CC(C)Nc1nccc2[nH]nc(-c3nccc(N4CCOCC4)n3)c12` [Compound 2, N-isopropyl-3-(4-morpholinopyrimidin-2-yl)-1H-pyrazolo[4,3-c]pyridin-4-amine], 78.5 nM.
Compound `FC(F)(F)c1cc(-c2n[nH]c3ccnc(NC(C4CC4)C4CC4)c23)ncn1` [Compound 73, N-(dicyclopropylmethyl)-3-(6-(trifluoro-methyl)pyrimidin-4-yl)-1H-pyrazolo[4,3-c]pyridin-4-amine] displayed a Ki of 2.5 nM.
The figure for `Cc1nc(-c2n[nH]c3ccnc(NC4CCOCC4)c23)cc(C(F)(F)F)n1` [Compound 71, 3-(2-methyl-6-(trifluoromethyl)pyrimidin-4-yl)-N-(tetrahydro-2H-pyran-4-yl)-1H-pyrazolo[4,3-c]pyridin-4-amine] is 6.7 nM; for `CC(C)Nc1nccc2[nH]nc(-c3cc(N4CCOCC4)ncn3)c12` [Compound 4, N-isopropyl-3-(6-morpholinopyrimidin-4-yl)-1H-pyrazolo[4,3-c]pyridin-4-amine] it is 1.1 nM; for `CCNc1nccc2[nH]nc(-c3cn(CCOC)nn3)c12` [Compound 14, N-ethyl-3-(1-(2-methoxyethyl)-1H-1,2,3-triazol-4-yl)-1H-pyrazolo[4,3-c]pyridin-4-amine] it is 22.5 nM.
On to `CC(C)Nc1nccc2[nH]nc(-c3cc(S(C)(=O)=O)ccn3)c12` [Compound 72, N-isopropyl-3-(4-(methylsulfonyl)pyridin-2-yl)-1H-pyrazolo[4,3-c]pyridin-4-amine], for which the affinity corresponds to a Ki of 6 nM.
The compound `CCc1cc(-c2n[nH]c3ccnc(NC4CCOCC4)c23)nn1C` [Compound 1, 3-(5-ethyl-1-methyl-1H-pyrazol-3-yl)-N-(tetrahydro-2H-pyran-4-yl)-1H-pyrazolo[4,3-c]pyridin-4-amine] yielded an inhibitory constant (Ki) of 0.5 nM.
The compound `CC(C)Nc1nccc2[nH]nc(-c3cc(-c4ccn(C)n4)ccn3)c12` [Compound 46, N-isopropyl-3-(4-(1-methyl-1H-pyrazol-3-yl)pyridin-2-yl)-1H-pyrazolo[4,3-c]pyridin-4-amine] gave a Ki of 1 nM.
In turn, `CCOc1ccnc(-c2n[nH]c3ccnc(NC4CCOCC4)c23)c1` [Compound 50, 3-(4-ethoxypyridin-2-yl)-N-(tetrahydro-2H-pyran-4-yl)-1H-pyrazolo[4,3-c]pyridin-4-amine] gave an inhibition constant (Ki) of 2.2 nM.
`CC(C)Nc1nccc2[nH]nc(-c3cc(C(=O)N4CCOCC4)ccn3)c12` [Compound 56, (2-(4-(isopropylamino)-1H-pyrazolo[4,3-c]pyridin-3-yl)pyridin-4-yl)(morpholino)methanone] had a Ki of 80.3 nM.
The figure for `FC1(F)CN(c2ccnc(-c3n[nH]c4ccnc(NC5CCOCC5)c34)c2)CC(F)(F)O1` [Compound 61, 3-(4-(2,2,6,6-tetrafluoro-morpholino)pyridin-2-yl)-N-(tetrahydro-2H-pyran-4-yl)-1H-pyrazolo[4,3-c]pyridin-4-amine] is 1.4 nM.
The result for `CC(C)Nc1nccc2[nH]nc(-c3cc(C(F)(F)F)ccn3)c12` [Compound 20, N-isopropyl-3-(4-(trifluoromethyl)pyridin-2-yl)-1H-pyrazolo[4,3-c]pyridin-4-amine] reads 1.6 nM; that for `CCNc1nccc2[nH]nc(-c3cn(C)cn3)c12` [Compound 12, N-ethyl-3-(1-methyl-1H-imidazol-4-yl)-1H-pyrazolo[4,3-c]pyridin-4-amine], 33.7 nM; that for `CC(C)Nc1nccc2[nH]nc(-c3cc(C#N)ccn3)c12` [Compound 31, 2-(4-(isopropylamino)-1H-pyrazolo[4,3-c]pyridin-3-yl)isonicotinonitrile], 2.3 nM.
For `CC(C)Nc1nccc2[nH]nc(-c3cn(C)nn3)c12` [Compound 8, N-isopropyl-3-(1-methyl-1H-1,2,3-triazol-4-yl)-1H-pyrazolo[4,3-c]pyridin-4-amine], the affinity, expressed as Ki, was 5.2 nM.
With `CS(=O)(=O)c1ccnc(-c2n[nH]c3ccnc(NC4CCOCC4)c23)c1` [Compound 69, 3-(4-(methylsulfonyl)pyridin-2-yl)-N-(tetrahydro-2H-pyran-4-yl)-1H-pyrazolo[4,3-c]pyridin-4-amine], the affinity corresponds to a Ki of 6.8 nM.
The result for `Cc1nn(C)cc1-c1ccnc(-c2n[nH]c3ccnc(NC(C)C)c23)c1` [Compound 45, 3-(4-(1,3-dimethyl-1H-pyrazol-4-yl)pyridin-2-yl)-N-isopropyl-1H-pyrazolo[4,3-c]pyridin-4-amine] reads 1.3 nM.
Turning to `CC(C)n1cc(-c2n[nH]c3ccnc(NC4CCOCC4)c23)nn1` [Compound 5, 3-(1-isopropyl-1H-1,2,3-triazol-4-yl)-N-(tetrahydro-2H-pyran-4-yl)-1H-pyrazolo[4,3-c]pyridin-4-amine], the Ki was 1.7 nM.
`Cc1nccc(-c2n[nH]c3ccnc(NC4CCOCC4)c23)n1` [Compound 33, 3-(2-methylpyrimidin-4-yl)-N-(tetrahydro-2H-pyran-4-yl)-1H-pyrazolo[4,3-c]pyridin-4-amine] came in with an inhibition constant (Ki) of 1 nM.
The figure for `CC(C)Nc1nccc2[nH]nc(-c3cc(C4CCCO4)ncn3)c12` (centres unmarked) [Compound 54, N-isopropyl-3-(6-(tetrahydrofuran-2-yl)pyrimidin-4-yl)-1H-pyrazolo[4,3-c]pyridin-4-amine] is 28.7 nM; for `CC(C)Nc1nccc2[nH]nc(-c3cc(C4CCCO4)ccn3)c12` (centres unmarked) [Compound 53, N-isopropyl-3-(4-(tetrahydrofuran-2-yl)pyridin-2-yl)-1H-pyrazolo[4,3-c]pyridin-4-amine] it is 4.4 nM.
The figure for `c1ccc(-c2n[nH]c3ccnc(NC4CCOCC4)c23)nc1` [Compound 17, 3-(pyridin-2-yl)-N-(tetrahydro-2H-pyran-4-yl)-1H-pyrazolo[4,3-c]pyridin-4-amine] is 3.1 nM; for `CCNc1nccc2[nH]nc(-c3cc(C#N)ccn3)c12` [Compound 25, 2-(4-(ethylamino)-1H-pyrazolo[4,3-c]pyridin-3-yl)isonicotinonitrile] it is 14.2 nM.
The figure for `c1cc(-c2n[nH]c3ccnc(NC4CCOCC4)c23)ncn1` [Compound 18, 3-(pyrimidin-4-yl)-N-(tetrahydro-2H-pyran-4-yl)-1H-pyrazolo[4,3-c]pyridin-4-amine] is 6 nM; for `CC(C)Nc1nccc2[nH]nc(-c3nc(C4CC4)n(C)n3)c12` [Compound 42, 3-(5-cyclopropyl-1-methyl-1H-1,2,4-triazol-3-yl)-N-isopropyl-1H-pyrazolo[4,3-c]pyridin-4-amine] it is 213 nM.
Take `CC(C)Nc1nccc2[nH]nc(-c3cc(-c4cccnc4F)ccn3)c12` [Compound 37, 3-(2-fluoro-[3,4′-bipyridin]-2′-yl)-N-isopropyl-1H-pyrazolo[4,3-c]pyridin-4-amine]: the Ki was found to be 3.1 nM. Compared with the last compound, the Ki is about 69-fold lower.
The compound `CCNc1nccc2[nH]nc(-c3ccncn3)c12` [Compound 19, N-ethyl-3-(pyrimidin-4-yl)-1H-pyrazolo[4,3-c]pyridin-4-amine] showed a Ki of 152 nM.
The result for `CC(C)Nc1nccc2[nH]nc(-c3cc(N4C[C@@H](F)[C@H](F)C4)ccn3)c12` [Compound 59, 3-(4-((3R,4R)-3,4-difluoropyrrolidin-1-yl)pyridin-2-yl)-N-isopropyl-1H-pyrazolo[4,3-c]pyridin-4-amine] reads 3.9 nM; that for `FC(F)(F)CNc1nccc2[nH]nc(-c3ccccn3)c12` [Compound 43, 3-(pyridin-2-yl)-N-(2,2,2-trifluoroethyl)-1H-pyrazolo[4,3-c]pyridin-4-amine], 8.8 nM; that for `CN(C)C(=O)c1ccnc(-c2n[nH]c3ccnc(NC4CCOCC4)c23)c1` [Compound 52, N,N-dimethyl-2-(4-((tetrahydro-2H-pyran-4-yl)amino)-1H-pyrazolo[4,3-c]pyridin-3-yl)isonicotinamide], 37.2 nM.
